Test results published in patent US6610524B2, “Thermostable phospholipase A1 mutants and a process for preparing the same” (priority 2000, dated 2003).

How the values were obtained:
Format in all cases: biochemical
Conditions in all cases: pH 8.0, 37° C., mean value of 2 experiments
[1] = biological target: Serratia sp. strain MK1 phospholipase A1 mutant TA13 (substitutions at positions 36, 102, 154, 158, 281 and 291 with Q, N, K, W, Q and N); SEQ ID NO: 7; DNA SEQ (Serratia sp. MK1, UniProt Q9X9D8, E35Q/K290N/L157W/L280Q/M153K/S101N); assay: kinetic parameters of phospholipase A1 mutant TA13 (pH-stat titration of fatty acid released from phosphatidylcholine)
Sequence of Serratia sp. strain MK1 phospholipase A1 mutant TA13 (substitutions at positions 36, 102, 154, 158, 281 and 291 with Q, N, K, W, Q and N); SEQ ID NO: 7; DNA SEQ (Q9X9D8 entry or part of it E35Q/S101N/M153K/L157W/L280Q/K290N): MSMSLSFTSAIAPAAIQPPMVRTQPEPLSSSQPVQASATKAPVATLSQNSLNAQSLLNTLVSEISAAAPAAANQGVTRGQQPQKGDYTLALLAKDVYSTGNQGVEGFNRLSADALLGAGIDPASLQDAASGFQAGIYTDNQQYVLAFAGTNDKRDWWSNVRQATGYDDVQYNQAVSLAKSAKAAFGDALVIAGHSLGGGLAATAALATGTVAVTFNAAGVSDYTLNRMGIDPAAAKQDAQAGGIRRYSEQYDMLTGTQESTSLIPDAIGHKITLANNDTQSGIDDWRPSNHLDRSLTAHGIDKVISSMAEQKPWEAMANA
Description: (§1) The amino acid sequence of TA3 was deduced from the nucleotide sequence of TA3 comprising thermostable phospholipase A1 mutant gene and set forth in SEQ ID NO: 6, and the amino acid sequence of TA13 was deduced from the nucleotide sequence of TA13 and set forth in SEQ ID NO: 7. When the amino acid sequences of thermostable phopholipase mutants, TA3 and TA13 were compared with that of naturally occurring phospholipase A1, TA3 and TA13 were identified as novel proteins with 7 and 6 amino acid substitutions, respectively. Phospholipase TA3 has been identified to have amino acid substitutions at positions of 32, 39, 65, 105, 153, 158 and 303 with P, A, L, V, I, I, and E and phospholipase TA13 has been identified to have amino acid substitutions at positions of 36, 102, 154, 158, 281 and 291 with Q, N, K, W, Q and N, respectively.
(§2) Catalytic activity of phospholipase A1 was determined using pH-stat titration method. The amount of released fatty acid from enzyme reaction was measured at 37° C. in a pH-stat (Radiometer Copenhagen, France) equipped with autotiter and autoburette. To a substrate solution containing 3.4 mM phosphatidylcholine, 10 mM CaCl2 and 2.6 mM deoxycholic acid, sonicated for emulsification, was added phospholipase A1 enzyme solution and then the amount of released fatty acid was measured. One unit is defined as the amount of enzyme that releases 1μ mole of free fatty acid per minute from phosphatidylcholine at 37° C. and pH 8.0 in a pH-stat.

[2] = biological target: Serratia sp. strain MK1 phospholipase A1 mutant TA3 (substitutions at positions 32, 39, 65, 105, 153, 158 and 303 with P, A, L, V, I, I and E); SEQ ID NO: 6; DNA (Serratia sp. MK1, UniProt Q9X9D8, E105V/K303E/M153I/Q32P/S158I/S65L/T39A); assay: kinetic parameters of phospholipase A1 mutant TA3 (pH-stat titration of fatty acid released from phosphatidylcholine)
Sequence of Serratia sp. strain MK1 phospholipase A1 mutant TA3 (substitutions at positions 32, 39, 65, 105, 153, 158 and 303 with P, A, L, V, I, I and E); SEQ ID NO: 6; DNA (Q9X9D8 entry or part of it Q32P/T39A/S65L/E105V/M153I/S158I/K303E): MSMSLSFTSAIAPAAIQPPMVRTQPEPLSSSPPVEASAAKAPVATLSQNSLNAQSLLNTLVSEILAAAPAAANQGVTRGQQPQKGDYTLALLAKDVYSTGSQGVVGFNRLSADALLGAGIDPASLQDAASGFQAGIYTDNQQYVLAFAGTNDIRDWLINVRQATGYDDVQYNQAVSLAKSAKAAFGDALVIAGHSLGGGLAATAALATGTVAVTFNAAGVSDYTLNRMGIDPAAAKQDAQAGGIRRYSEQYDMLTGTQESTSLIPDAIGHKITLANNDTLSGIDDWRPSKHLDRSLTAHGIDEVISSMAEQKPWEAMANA
Description: as §1, §2

[3] = biological target: Serratia sp. strain MK1 phospholipase A1 (PLA1), wild-type (naturally occurring; gene SEQ ID NO: 1) (Serratia sp. MK1, UniProt Q9X9D8); assay: kinetic parameters of phospholipase A1 (pH-stat titration of fatty acid released from phosphatidylcholine)
Sequence of Serratia sp. strain MK1 phospholipase A1 (PLA1), wild-type (naturally occurring; gene SEQ ID NO: 1) (Q9X9D8 entry or part of it): as the sequence (Q9X9D8 entry or part of it E35Q/S101N/M153K/L157W/L280Q/K290N) above, with Q35E, N101S, K153M, W157L, Q280L, N290K counted along it
Experimental: as §2

## phosphatidylcholine
[1]
  Kcat: 13.67 S^−1
  Kcat/Km: 0.114 S^−1 μM
  Km: 120 µM
[2]
  Kcat: 10.92 S^−1
  Kcat/Km: 0.104 S^−1 μM
  Km: 105 µM
[3]
  Kcat: 11.23 S^−1
  Kcat/Km: 0.093 S^−1 μM
  Km: 114 µM
